The values that follow come from patent publication US20060117411A1, “Enhancing plant pathogen resistance via increasing BiP levels” (priority 1998, published 2006).

For this test, the system named is α-amylase synthesis in tobacco protoplasts. Description: Transient expression in tobacco protoplasts (pNL200), α-amylase activity. In kind it is cell-based, Nicotiana tabacum. Conditions: tunicamycin 20 μg/mL, 20 hr. An excerpt:
We have established a model system based on the comparison of protein biosynthesis in the cytosol and on the rough ER using transient expression. A plasmid was constructed (pNL200, FIG. 12A) containing two genes, one encoding the secreted barley α-amylase (Rogers, 1985) and the other encoding the cytosolic marker β-glucuronidase (GUS; Jefferson et al., 1987). α-Amylase was used to measure secretory protein biosynthesis, and GUS was used to control for transfection efficiency and overall cell viability. We compared cells under normal culture conditions with cells subjected to ER stress by treatment with tunicamycin. […] Since α-amylase is not glycosylated, tunicamycin should not have a direct effect on this protein. The tunicamycin effect is protein-specific and not dependent on the promoter used. […]
Tobacco leaf protoplasts (from transformed or untransformed plants) were prepared, and electroporation experiments were performed as previously described (Denecke and Vitale, 1995), with minor modifications to the electroporation conditions. […] After 24 or 48 hr, the protoplasts were analysed by enzymatic assay or by protein gel blotting. […]
α-Amylase activity was measured with a kit (Megazyme, Australia). […] The absorbance was measured at a wavelength of 405 nm, with a microtiter plate reader against a blank containing stop buffer alone. […]

In the case of tunicamycin, the “total α-amylase activity in the cell suspension” value was “greatly reduced”.
